Experiments:
[1] = system: oxazolone-induced colitis; assay: Mouse model of oxazolone-induced colitis; format: in vivo, BALB/C mice; details: PO, 1, 3, and/or 10 mg/kg BID
Procedure: Oxazolone-induced colitis is an experimental model that has a histological resemblance to human ulcerative colitis (Heller et al. […], 2002, 17, 629-638). Adult BALB/C mice from Harlan were used in the assay. On day 1, animals were lightly anesthetized with isoflurane and the hairs between the shoulder were carefully removed before oxazolone (4%, 150 μL, 4:1 acetone: olive oil formulation) or vehicle solution was slowly applied for skin sensitization. Seven days after skin sensitization, the mice were fasted overnight, anesthetized with isoflurane inhalation, and a 1 mL syringe equipped with a 3.5-F catheter, filled with oxazolone solution, was inserted carefully about 4 cm into the colon of the mouse. Following insertion, 50 μL of the oxazolone solution (1%, 1:1 ethanol:water formulation) was injected very slowly (over 30 sec using an injection pump) into the colon. […] Two-day post oxazolone intrarectal challenge, the Disease Activity Index (DAI) was assessed by treatment-blinded experimenters for each mouse according to the criteria score: stool consistency score (0, normal; 2, loose; 4, diarrhea), gross bleeding score (0, absence; 2, blood tinged; 4, presence), and weight loss score (0, none; 1, 1%-5%; 2, 5%-10%; 3, 10%-20%; 4, more than 20%); DAI=average of (stool consistency score+gross bleeding score+weight loss score). […]

[2] = First in human study of safety, tolerability and pharmacokinetics in healthy subjects; format: in vivo; details: suggested by comparison with other orally administered compounds
Procedure: The compound of Example 1 was evaluated in a double-blinded, randomized, placebo-controlled, single ascending dose (SAD) and multiple ascending dose (MAD) study of safety, tolerability, and pharmacokinetics in healthy subjects. Pharmacokinetic samples were collected up to 72 hours post the final dose in both the SAD study (after the first dose) and MAD study (after 14 days of once-daily dosing). The SAD study enrolled 5 cohorts and the MAD study enrolled 4 cohorts totaling 72 subjects, of which 71 completed the dosing period.
Plasma pharmacokinetic (PK) parameters were determined by non-compartmental analysis using WinNonLin Version 6.4.0 (Pharsight, St Louis, MO). The plasma PK parameter presented here is: • Cmax: maximum concentration in plasma

[3] = system: mouse splenic NK, B and T cells; assay: Immunosuppression effects in mouse splenic natural killer (NK) cells; format: in vivo, Balb/C mice; details: for B and T cell populations: mouse spleen; for B and T cell populations / splenic NK cell counts: PO BID three days; for splenic NK cell counts: Example 1 up to 100 mg/kg, tofacitinib 30 mg/kg
Procedure: Depletion of mouse splenic cells is an experimental model of immunosuppression (Kudlacz et al., Am. J. of Transplantation, 2004, 4, 51-57). […] Adult male Balb/C mice (12-14 weeks of age) from Harlan were used for the study. […] Spleens were harvested 1 or 2 h post last dose and crushed immediately for cell subtype staining. Prior to fixation, fluorophore-labelled antibodies for CD19 (FITC; B cells), CD3e (PE; pan T cells) and DX5 (APC; NK cells) were incubated with splenocyte samples from each animal to allow for simultaneous, multiple subtype % analysis on the flow cytometer. The number of total spleen cells for each animal was measured by Scepter™ 2.0 Handheld Automated Cell Counter. The absolute number of lymphocyte subtype population (e.g., splenic B, T and NK cells) was calculated from the percentage of each subtype times total spleen cells for each animal. A one way ANOVA, with Dunnett's post hoc test, was used to compare the splenic lymphocytes number of the vehicle and test compound groups. The a level was set at p<0.05. Data were presented as the mean±SEM for each group.

[4] = Pharmacokinetics in plasma and the GI tract in rats; format: in vivo, Sprague Dawley rats; details: oral dosing in preclinical species
Procedure: A test compound was dosed to male Sprague Dawley rats (n=3) as described in Assay 5. […] At all time points, the plasma concentration was below the limit of quantitation of 0.001 μg/mL.

[5] = Solid state stability assessment; format: physicochemical; set-up: unit not given here
Source text: At specific intervals, the contents of a representative sample was removed and analyzed by HPLC for chemical purity and by Karl Fischer for water content.

[6] = Procedure: A weighed sample was used and the humidity was lowest possible value (close to 0% RH) at the start of the analysis. The DMS analysis consisted of an initial drying step (0% RH) for 120 minutes, followed by two cycles of sorption and desorption with a scan rate of 5% RH/step over the humidity range of 5% RH to 90% RH. The DMS run was performed isothermally at 25° C.

SMILES | decrease in DAI score as compared with vehicle treated animals [1] | oral bioavailability [2] | B and T cell populations [3] | splenic NK cell counts ([3]; mouse) | effect of immunosuppression ([3]; mouse, same dose required for efficacy in the oxazolone model) | exposure throughout the gastrointestinal tract versus plasma [4] | RRT 0.96 ([5]; HPLC peak at RRT 0.96, T = 0) | RRT 0.96 ([5]; HPLC peak at RRT 0.96, T = 1 Month, 40° C./75% RH) | RRT 0.96 ([5]; HPLC peak at RRT 0.96, T = 3 Month, 25° C./60% RH) | RRT 0.96 ([5]; HPLC peak at RRT 0.96, T = 3 Month, 40° C./75% RH) | RRT 1.84 ([5]; HPLC peak at RRT 1.84, T = 0) | RRT 1.84 ([5]; HPLC peak at RRT 1.84, T = 1 Month, 40° C./75% RH) | RRT 1.84 ([5]; HPLC peak at RRT 1.84, T = 3 Month, 25° C./60% RH) | RRT 1.84 ([5]; HPLC peak at RRT 1.84, T = 3 Month, 40° C./75% RH) | weight change (gain) on moisture sorption ([6]; 5% to 90% relative humidity, room temperature, listed as Crystalline 3-(1R,3s,5S)-3-((7-((5-methyl-1H-pyrazol-3-yl)amino)-1,6-naphthyrid))) | hygroscopicity ([6]; two cycles of sorption and desorption)
Cc1cc(Nc2cc3ncccc3c(N[C@@H]3C[C@H]4CC[C@@H](C3)N4CCC#N)n2)n[nH]1 [Example 1, 3-((1R,3s,5S)-3-((7-((5-methyl-1H-pyrazol-3-yl)amino)-1,6-naphthyridin-5-yl)amino)-8-azabicyclo[3.2.1]octan-8-yl)propanenitrile] | demonstrated activity | very low | No treatment effect | unaffected | minimal effect | significantly higher exposure | – | – | – | – | – | – | – | – | – | –
Cc1cc(Nc2cc3ncccc3c(N[C@@H]3C[C@H]4CC[C@@H](C3)N4CCC#N)n2)n[nH]1 [Form I, 3-((1R,3s,5S)-3-((7-((5-methyl-1H-pyrazol-3-yl)amino)-1,6-naphthyridin-5-yl)amino)-8-azabicyclo[3.2.1]octan-8-yl)propanenitrile] | – | – | – | – | – | – | 0.07 | 0.07 | 0.07 | 0.07 | 0.08 | 0.08 | 0.05 | 0.05 | less than 0.15% | non-hygroscopic
C[C@@H]1CCN(C(=O)CC#N)C[C@@H]1N(C)c1ncnc2[nH]ccc12 [tofacitinib, reference compound] | – | – | No treatment effect | dose-dependently and significantly decreased | – | – | – | – | – | – | – | – | – | – | – | –

— patent US12358931B2, “3-((1R,3s,5S)-3-((7-((5-methyl-1H-pyrazol-3-yl)amino)-1,6-naphthyridin-5-yl)amino)-8-azabicyclo[3.2.1]octan-8-yl) propanenitrile as a JAK kinase inhibitor” (priority 2015, dated 2025)
